Data: ChEMBL document CHEMBL4017485, “Chromone as a Privileged Scaffold in Drug Discovery: Recent Advances” (J Med Chem, 2017)
pEC50, pIC50: −log10 of the molar value. Converted amounts (≈) assume the structure as drawn.

Assays:
Acetylcholinesterase = Acetylcholinesterase (Electrophorus electricus, UniProt O42275); experiment: Inhibition of electric eel AChE using acetylthiocholine iodide as substrate preincubated with substrate for 15 mins followed by protein addition measured after 5 mins by Ellaman's method
Entamoeba histolytica = experiment: Antiamoebic activity against trophozoite stage of Entamoeba histolytica HM-1:IMSS incubated for 24 hrs measured after 48 hrs by dilution micromethod; assay type: functional
U2OS = experiment: Antiproliferative activity against human U2OS cells after 48 hrs by MTT assay; assay type: functional, cell-based
MG-63 = experiment: Antiproliferative activity against human MG63 cells after 48 hrs by MTT assay; assay type: functional, cell-based; details: MG-63, 48 h
[1] = target: T1, Amine oxidase [flavin-containing] B (Homo sapiens, UniProt P27338); experiment: Inhibition of human MAO-B using p-tyramine as substrate by amplex red-based fluorescence assay
T1 sequence (P27338 whole entry): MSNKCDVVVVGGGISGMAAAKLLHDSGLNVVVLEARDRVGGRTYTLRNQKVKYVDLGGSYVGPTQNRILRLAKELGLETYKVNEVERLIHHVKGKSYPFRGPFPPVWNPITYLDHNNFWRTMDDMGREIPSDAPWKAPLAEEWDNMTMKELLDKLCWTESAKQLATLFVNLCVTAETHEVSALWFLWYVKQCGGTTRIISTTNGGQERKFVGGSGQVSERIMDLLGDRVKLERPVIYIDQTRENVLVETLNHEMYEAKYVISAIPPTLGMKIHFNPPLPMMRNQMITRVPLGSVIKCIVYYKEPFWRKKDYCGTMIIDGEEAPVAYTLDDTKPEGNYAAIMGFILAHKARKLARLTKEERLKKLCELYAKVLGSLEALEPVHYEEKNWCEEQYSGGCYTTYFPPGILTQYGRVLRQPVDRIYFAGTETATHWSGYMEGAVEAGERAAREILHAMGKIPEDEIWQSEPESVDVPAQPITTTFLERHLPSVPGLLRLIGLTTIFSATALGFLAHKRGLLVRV

Pseudomonas aeruginosa = experiment: Antibacterial activity against Pseudomonas aeruginosa ATCC 13384 after 16 hrs by broth dilution method; assay type: functional; details: ATCC 13384, 16 h
Staphylococcus aureus = experiment: Antibacterial activity against Staphylococcus aureus ATCC 6538 after 16 hrs by broth dilution method; assay type: functional; details: ATCC 6538, 16 h
MCF7 = experiment: Antiproliferative activity against human MCF7 cells after 4 hrs by MTT assay; assay type: functional, cell-based; details: MCF7, 4 h
[2] = Antioxidant activity assessed as DPPH free radical scavenging activity; assay type: functional
[3] = Inhibition of Saccharomyces cerevisiae alpha-glucosidase using PNP-G as substarte
KB = experiment: Antiproliferative activity against human KB cells after 4 hrs by MTT assay; assay type: functional, cell-based
Beta-secretase 1 = Beta-secretase 1 (Homo sapiens, UniProt P56817); experiment: Inhibition of recombinant human BACE-1 using rhodamine labelled EVNLDAEFK as substrate after 90 mins by FRET assay
Candida tropicalis = experiment: Antifungal activity against Candida tropicalis after 24 hrs by Neubauer chamber method; assay type: functional

Chain of Acetylcholinesterase (O42275 whole entry): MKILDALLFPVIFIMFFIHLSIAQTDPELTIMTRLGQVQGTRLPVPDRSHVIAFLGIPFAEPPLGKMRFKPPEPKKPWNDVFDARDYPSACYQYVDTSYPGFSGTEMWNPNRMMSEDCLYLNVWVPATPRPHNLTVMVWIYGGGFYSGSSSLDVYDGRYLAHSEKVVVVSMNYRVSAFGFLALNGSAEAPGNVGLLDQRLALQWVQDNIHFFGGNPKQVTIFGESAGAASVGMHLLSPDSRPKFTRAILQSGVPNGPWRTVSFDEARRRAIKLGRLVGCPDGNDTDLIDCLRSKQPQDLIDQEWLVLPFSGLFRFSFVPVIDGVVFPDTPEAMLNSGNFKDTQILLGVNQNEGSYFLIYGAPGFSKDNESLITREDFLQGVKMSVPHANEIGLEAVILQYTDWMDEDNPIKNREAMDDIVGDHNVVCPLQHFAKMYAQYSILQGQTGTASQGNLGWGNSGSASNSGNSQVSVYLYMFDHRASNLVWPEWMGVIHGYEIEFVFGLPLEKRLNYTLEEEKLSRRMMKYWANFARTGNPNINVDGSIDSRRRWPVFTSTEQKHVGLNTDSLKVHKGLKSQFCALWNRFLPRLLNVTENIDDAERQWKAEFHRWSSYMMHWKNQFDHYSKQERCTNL
Chain of Beta-secretase 1 (P56817 whole entry): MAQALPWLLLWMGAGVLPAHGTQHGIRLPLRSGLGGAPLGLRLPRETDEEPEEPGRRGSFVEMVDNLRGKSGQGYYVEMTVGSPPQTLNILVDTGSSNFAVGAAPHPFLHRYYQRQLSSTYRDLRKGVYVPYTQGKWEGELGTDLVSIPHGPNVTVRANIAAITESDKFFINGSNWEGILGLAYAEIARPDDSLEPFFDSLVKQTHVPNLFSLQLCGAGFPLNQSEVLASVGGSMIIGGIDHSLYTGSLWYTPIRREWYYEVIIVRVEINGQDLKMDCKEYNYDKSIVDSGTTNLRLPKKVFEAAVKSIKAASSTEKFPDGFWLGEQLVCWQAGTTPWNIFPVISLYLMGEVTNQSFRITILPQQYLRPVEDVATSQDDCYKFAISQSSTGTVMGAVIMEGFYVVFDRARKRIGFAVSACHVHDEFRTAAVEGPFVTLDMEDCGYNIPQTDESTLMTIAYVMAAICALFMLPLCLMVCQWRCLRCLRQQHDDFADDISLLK

For `NC1=C(/C=C2\COc3ccccc3C2=O)C(=O)C2C=CC=CC2O1` (stereo unspecified), the pIC50 (Acetylcholinesterase) was 6.57.
Work on `CC(C)(C)n1nnnc1C(Nc1ccc(Cl)cc1)c1coc2cc(F)ccc2c1=O` (stereo unspecified) yielded an IC50 (Entamoeba histolytica) of 61.7 mg/L (≈ 144 µM).
For `O=c1cc(N2CCOCC2)oc2c(-c3ccccc3)cccc12` [LY-294002], the pIC50 (U2OS) was 4.20 and the pIC50 (MG-63) was 4.26.
Compound `Cc1ccc(N/C=C2\C(=O)Oc3ccccc3C2=O)cc1` has a pIC50 [1] of 7.37.
With `O=C1/C(=C/C2=COC3C=CC(Br)=CC3C2=O)COc2ccccc21` (stereo unspecified) the pIC50 (Acetylcholinesterase) was 6.02.
`CC(C)(C)n1nnnc1C(Nc1ccccc1I)c1coc2ccccc2c1=O` (stereo unspecified) showed an MIC (Pseudomonas aeruginosa) of 160 mg/L (≈ 319 µM), an IC50 (Entamoeba histolytica) of 61.7 mg/L (≈ 123 µM) and an MIC (Staphylococcus aureus) of 40 mg/L (≈ 79.8 µM).
Work on `CC(C)(C)n1nnnc1C(Nc1ccccc1)c1coc2cc(F)ccc2c1=O` (stereo unspecified) yielded an MIC (Pseudomonas aeruginosa) of 20 mg/L (≈ 50.8 µM) and an MIC (Staphylococcus aureus) of 80 mg/L (≈ 203 µM).
Compound `COc1ccc2c(=O)c(/C=C3\SC(=O)N(C)C3=O)coc2c1` has an IC50 (MCF7) of 32.8 mg/L (≈ 103 µM).
Work on `COc1ccc2c(c1)OC/C(=C\c1ccc(O)c(O)c1)C2=O` yielded a pEC50 [2] of 4.89 and a pIC50 [3] of 4.55.
Work on `O=c1c(/C=C/c2ccc(O)c(O)c2)coc2ccc(O)cc12` yielded a pEC50 [2] of 4.77 and a pIC50 [3] of 4.80.
Compound `COc1ccc2c(=O)c(/C=C3\SC(=O)NC3=O)coc2c1` has an IC50 (KB) of 44.1 mg/L (≈ 145 µM).
Work on `CCCCCC(=O)Oc1ccc2c(=O)c(C3C(OC(=O)CC)=C(C)NC(C)=C3OC(=O)CC)coc2c1` yielded a pIC50 (Beta-secretase 1) of 5.16.
With `COc1cc(NC(c2coc3cc(F)ccc3c2=O)c2nnnn2C2CCCCC2)cc(OC)c1OC` (stereo unspecified) the MIC (Pseudomonas aeruginosa) was 80 mg/L (≈ 157 µM), the MIC (Staphylococcus aureus) was 160 mg/L (≈ 314 µM) and the MIC (Candida tropicalis) was 6250 mg/L (≈ 12300 µM).
